For one series, the target named is T1, caspase-6 ΔN D179CT (Homo sapiens, UniProt P55212).
T1 sequence (P55212 24-179): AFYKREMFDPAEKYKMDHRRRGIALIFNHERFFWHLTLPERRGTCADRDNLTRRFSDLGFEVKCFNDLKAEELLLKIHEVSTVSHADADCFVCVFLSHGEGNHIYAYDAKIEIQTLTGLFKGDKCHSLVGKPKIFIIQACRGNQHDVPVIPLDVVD
T1 sequence (P55212 194-293): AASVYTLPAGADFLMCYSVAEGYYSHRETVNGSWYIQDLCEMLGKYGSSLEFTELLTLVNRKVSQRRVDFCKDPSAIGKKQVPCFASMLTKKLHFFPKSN
The series is described as follows: Effect of ATP on the activity of cleaved, active caspase-6. It counts as biochemical. The note with it: increasing ATP concentrations (0-40 mM), 1.5 h, 37 °C, 60 μM VEID-AMC.

For a further series, the target named is T2, procaspase-6 (Homo sapiens, UniProt P55212).
T2 sequence (P55212 1-293): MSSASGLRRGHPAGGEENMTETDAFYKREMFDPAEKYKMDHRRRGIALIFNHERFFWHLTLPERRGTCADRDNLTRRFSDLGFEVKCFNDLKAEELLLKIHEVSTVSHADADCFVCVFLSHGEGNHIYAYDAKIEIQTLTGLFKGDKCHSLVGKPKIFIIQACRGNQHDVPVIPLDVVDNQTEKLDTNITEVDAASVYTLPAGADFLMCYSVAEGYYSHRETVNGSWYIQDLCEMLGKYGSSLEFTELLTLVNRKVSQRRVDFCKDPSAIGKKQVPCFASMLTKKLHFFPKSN
It counts as binding.

Series [1] concerns the target T3, procaspase-6, Caspase-6 FL N-terminally (His)6 (Homo sapiens, UniProt P55212).
T3 sequence (P55212 1-293): T2 sequence (P55212 1-293)
The series is described as follows: biochemical.

For series [2], the target named is procaspase-6 (inactive C163S zymogen). Conditions: SPR; cited from earlier work.
The target in another series is T4, procaspase-6 C163S (Homo sapiens, UniProt P55212, C163S).
T4 sequence (P55212 1-293 C163S): T2 sequence (P55212 1-293) with C163S
Description: ATPAc labeling of K133, C163S variant expressed in E. coli. It counts as binding. The note with it: full-length zymogen; defined as 100%.

The next series deals with T5, procaspase-6 Y198A (Homo sapiens, UniProt P55212, Y198A).
T5 sequence (P55212 24-179): T1 sequence (P55212 24-179)
T5 sequence (P55212 194-293 Y198A): T1 sequence (P55212 194-293) with Y5A
Description: ATPAc labeling of K133, Y198A variant expressed in E. coli. It counts as binding. The note with it: zymogen processed to mature Y198A caspase-6; relative to C163S = 100%.

A further series deals with T6, procaspase-6 Y198A/C163S (Homo sapiens, UniProt P55212, C163S/Y198A).
T6 sequence (P55212 1-293 C163S/Y198A): T2 sequence (P55212 1-293) with C163S, Y198A
Description: ATPAc labeling of K133, Y198A/C163S variant expressed in E. coli. It counts as binding. The note with it: full-length procaspase-6; relative to C163S = 100%.

A further series concerns the target T7, caspase-6 (Homo sapiens, UniProt P55212).
T7 sequence (P55212 24-179): T1 sequence (P55212 24-179)
T7 sequence (P55212 194-293): T1 sequence (P55212 194-293)
Description: Caspase activity assay, kinetic parameters with VEID-AMC substrate. It counts as biochemical. Conditions: 100 nM enzyme, VEID-AMC 0-500 μM, 37 °C.

Here are results for 6 molecules from PMC6874883 (Biochemistry, 2019).

Positions count from the first letter of the chain named. Numbers in names are those of the source. Where “and” joins values, the source holds several entries; their conditions need not be identical. Equal entries are not always repeated. Bounds are passed on as bounds.

With `Nc1ncnc2c1ncn2[C@@H]1O[C@H](COP(=O)(O)OP(=O)(O)OP(=O)(O)O)[C@@H](O)[C@H]1O` [ATP, adenosine triphosphate], the “activity of mature caspase-6” value on caspase-6 ΔN D179CT is on record as “not affected”. At procaspase-6, this molecule gave a concentration for half-maximal inhibition (IC50) of 1000 to 3000 µM and an inhibition constant Ki of about 2000 µM. This molecule showed a 50% inhibitory concentration (IC50) in series [1] of 19000 ± 800 µM.

On to `Nc1cc2ccccc2c(O)n1` [compound 3, 3-aminoisoquinolin-1-ol], for which, in series [2], the dissociation constant (Kd) was 1.8 µM and ~1.8 µM. Further, at procaspase-6, the IC50 was over 1000 µM.

`Nc1ncnc2c1ncn2[C@H]1C[C@H](O)[C@@H](COP(=O)(O)OP(=O)(O)OP(=O)(O)O)O1` [dATP]: on procaspase-6 (immunoblot experiment, at ≤100 mM), the “inhibition of probe acylation (immunoblot)” value was “no significant inhibition”.

In the case of “desthiobiotin acyl phosphate of ATP [ATPAc]”, the “acylation of K133” value on procaspase-6 C163S worked out at 100%; on procaspase-6 Y198A, 1.9%; on procaspase-6 Y198A/C163S, 1.7%.

Consider `Nc1nc2c(ncn2[C@@H]2O[C@H](COP(=O)(O)OP(=O)(O)OP(=O)(O)O)[C@@H](O)[C@H]2O)c(=O)[nH]1` [GTP, guanosine triphosphate], for which the “inhibition of K133 acylation by acyl phosphate probes” value at procaspase-6 (resting Jurkat lysates pretreated 15 min with nucleotide (5 mM)) is recorded as “inhibited”.

B1: Y198A: mature active caspase-6 Y198A variant, recombinant, expressed in E. coli (protein, UniProt P55212 1-293, looked up, variant Y198A)
chain: T2 sequence (P55212 1-293) with Y198A
Take B1: the kcat with caspase-6 stood at 2.84 ± 0.04 s⁻¹.
